Source: the supplement of paper PMC4932681

What was measured:
BT-474 Tam1 [1] = experiment: drug sensitivity score (DSS) (DSS (dimensionless)); higher = more sensitive; extreme values may be limits of the assay; conditions: 4-OH-tamoxifen in medium 1 µM; 72 h
In short: (§1)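 Drug sensitivity score, relative IC50 as the curve midpoint, and top-dose inhibition were derived from logistic dose–response fits in the Breeze pipeline. These fits used CellTiter-Glo viability, read on a PHERAstar and normalised to vehicle-only and positive controls. Breast cancer cell lines and resistant derivatives had been incubated for 72 h at 37 °C in 384-well plates holding library drugs at five concentrations spanning a 10 000-fold range. Resistant lines were grown in medium with 1 μM of the selecting drug.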

BT-474 Tam2 [2] = experiment: as above; conditions: 4-OH-tamoxifen in medium 1 µM; 72 h
In short: as §1

BT-474 [3] = experiment: as above; conditions: 72 h
In short: as §1

MCF-7 Tam1 [4] = experiment: as above; conditions: 4-OH-tamoxifen in medium 1 µM; 72 h
In short: as §1

MCF-7 [5] = experiment: as above; conditions: 72 h
In short: as §1

T-47D Tam1 [6] = experiment: as above; conditions: 4-OH-tamoxifen in medium 1 µM; 72 h
In short: as §1

T-47D Tam2 [7] = experiment: as above; conditions: 4-OH-tamoxifen in medium 1 µM; 72 h
In short: as §1

T-47D [8] = experiment: as above; conditions: 72 h
In short: as §1

ZR-75-1 Tam1 [9] = experiment: as above; conditions: 4-OH-tamoxifen in medium 1 µM; 72 h
In short: as §1

ZR-75-1 Tam2 [10] = experiment: as above; conditions: 4-OH-tamoxifen in medium 1 µM; 72 h
In short: as §1

ZR-75-1 [11] = experiment: as above; conditions: 72 h
In short: as §1

BT-474 Tam1 [12] = experiment: relative IC50 (midpoint of fitted logistic curve, plateau may be below 50% inhibition; CellTiter-Glo viability); higher = less potent; conditions: 4-OH-tamoxifen in medium 1 µM; 72 h
In short: as §1

BT-474 Tam2 [13] = experiment: as above; conditions: 4-OH-tamoxifen in medium 1 µM; 72 h
In short: as §1

BT-474 [14] = experiment: as above; conditions: 72 h
In short: as §1

MCF-7 Tam1 [15] = experiment: as above; conditions: 4-OH-tamoxifen in medium 1 µM; 72 h
In short: as §1

MCF-7 [16] = experiment: as above; conditions: 72 h
In short: as §1

T-47D Tam1 [17] = experiment: as above; conditions: 4-OH-tamoxifen in medium 1 µM; 72 h
In short: as §1

T-47D Tam2 [18] = experiment: as above; conditions: 4-OH-tamoxifen in medium 1 µM; 72 h
In short: as §1

T-47D [19] = experiment: as above; conditions: 72 h
In short: as §1

ZR-75-1 Tam1 [20] = experiment: as above; conditions: 4-OH-tamoxifen in medium 1 µM; 72 h
In short: as §1

ZR-75-1 Tam2 [21] = experiment: as above; conditions: 4-OH-tamoxifen in medium 1 µM; 72 h
In short: as §1

ZR-75-1 [22] = experiment: as above; conditions: 72 h
In short: as §1

| SMILES | drug sensitivity score (BT-474 Tam1 [1]) | drug sensitivity score (BT-474 Tam2 [2]) | drug sensitivity score (BT-474 [3]; 4-OH-tamoxifen in medium 0 µM) | drug sensitivity score (BT-474 [3]; 4-OH-tamoxifen in medium 1 µM) | drug sensitivity score (MCF-7 Tam1 [4]) | drug sensitivity score (MCF-7 [5]; 4-OH-tamoxifen in medium 0 µM) | drug sensitivity score (MCF-7 [5]; 4-OH-tamoxifen in medium 1 µM) | drug sensitivity score (T-47D Tam1 [6]) | drug sensitivity score (T-47D Tam2 [7]) | drug sensitivity score (T-47D [8]; 4-OH-tamoxifen in medium 0 µM) | drug sensitivity score (T-47D [8]; 4-OH-tamoxifen in medium 1 µM) | drug sensitivity score (ZR-75-1 Tam1 [9]) | drug sensitivity score (ZR-75-1 Tam2 [10]) | drug sensitivity score (ZR-75-1 [11]; 4-OH-tamoxifen in medium 0 µM) | drug sensitivity score (ZR-75-1 [11]; 4-OH-tamoxifen in medium 1 µM) | relative IC50 (BT-474 Tam1 [12]) | relative IC50 (BT-474 Tam2 [13]) | relative IC50 (BT-474 [14]; 4-OH-tamoxifen in medium 0 µM) | relative IC50 (BT-474 [14]; 4-OH-tamoxifen in medium 1 µM) | relative IC50 (MCF-7 Tam1 [15]) | relative IC50 (MCF-7 [16]; 4-OH-tamoxifen in medium 0 µM) | relative IC50 (MCF-7 [16]; 4-OH-tamoxifen in medium 1 µM) | relative IC50 (T-47D Tam1 [17]) | relative IC50 (T-47D Tam2 [18]) | relative IC50 (T-47D [19]; 4-OH-tamoxifen in medium 0 µM) | relative IC50 (T-47D [19]; 4-OH-tamoxifen in medium 1 µM) | relative IC50 (ZR-75-1 Tam1 [20]) | relative IC50 (ZR-75-1 Tam2 [21]) | relative IC50 (ZR-75-1 [22]; 4-OH-tamoxifen in medium 0 µM) | relative IC50 (ZR-75-1 [22]; 4-OH-tamoxifen in medium 1 µM) |
| --- | --- | --- | --- | --- | --- | --- | --- | --- | --- | --- | --- | --- | --- | --- | --- | --- | --- | --- | --- | --- | --- | --- | --- | --- | --- | --- | --- | --- | --- | --- |
| C[C@]12C=CC(=O)C=C1CC[C@@H]1[C@@H]2C(=O)C[C@@]2(C)[C@H]1CC[C@]2(O)C(=O)CO [Prednisone] | 0 | 0 | 0 | 0 | 0 | 0 | 0 | 0 | 0 | 0 | 0 | 0 | 0 | 0 | 0 | > 10 µM | > 10 µM | > 10 µM | > 10 µM | > 10 µM | > 10 µM | > 10 µM | > 10 µM | > 10 µM | > 10 µM | > 10 µM | > 10 µM | > 10 µM | > 10 µM | > 10 µM |
| CC(=O)[C@]1(O)Cc2c(O)c3c(c(O)c2[C@@H](O[C@H]2C[C@H](N)[C@H](O)[C@H](C)O2)C1)C(=O)c1ccccc1C3=O [Idarubicin] | 3.94 | 3.03 | 4.38 | 4.91 | 1.86 | 6.65 | 5.56 | 8.94 | 2.4 | 8.26 | 3.11 | 5.45 | 7.63 | 6.29 | 5.81 | 0.394 µM | 0.371 µM | 0.309 µM | 0.349 µM | 0.331 µM | 0.191 µM | 0.187 µM | 0.123 µM | 0.313 µM | 0.0974 µM | 0.329 µM | 0.127 µM | 0.086 µM | 0.12 µM | 0.111 µM |
| O=C(O)C(=O)O.[NH-][C@@H]1CCCC[C@H]1[NH-].[Pt+2] [Oxaliplatin] | 0 | 0 | 0 | 0 | 0 | 0 | 0 | 0 | 0 | 0 | 0 | 0 | 0 | 0 | 0 | > 10 µM | > 10 µM | > 10 µM | > 10 µM | > 10 µM | > 10 µM | > 10 µM | > 10 µM | > 10 µM | > 10 µM | > 10 µM | > 10 µM | > 10 µM | > 10 µM | > 10 µM |
| C[C@]1(c2nc3c(C(N)=O)cccc3[nH]2)CCCN1 [Veliparib  (ABT-888)] | 0 | 0 | 0 | 0 | 0 | 0 | 0 | 0 | 0 | 0 | 0 | 0 | 0 | 0 | 0 | > 10 µM | > 10 µM | > 10 µM | > 10 µM | > 10 µM | > 10 µM | > 10 µM | > 10 µM | > 10 µM | > 10 µM | > 10 µM | > 10 µM | > 10 µM | > 10 µM | > 10 µM |
| N#CC[C@H](C1CCCC1)n1cc(-c2ncnc3[nH]ccc23)cn1 | 0 | 0 | 0 | 0 | 0 | 0 | 0 | 0 | 0 | 0 | 0 | 0 | 0 | 0 | 0 | > 10 µM | > 10 µM | > 10 µM | > 10 µM | > 10 µM | > 10 µM | > 10 µM | > 10 µM | > 10 µM | > 10 µM | > 10 µM | > 10 µM | > 10 µM | > 10 µM | > 10 µM |
